Inhibition data for 8 compounds are collected here from patent publication US5760036A, “Aminediol protease inhibitors” (E. R. Squibb & Sons, Inc., priority 1995, dated 1998).

SMILES strings stand for the structures.

This test addresses T1, HIV protease (Human immunodeficiency virus type 1 group M subtype B, UniProt P04585).
T1 construct: and purified protease
The experiment in a line: HIV Protease Assay. Type of test: biochemical. The settings on record: pH 5.5, 10 μM inhibitor, 4% DMSO, 450 μM substrate, pH 5.5, 30 minutes at 37° C., RP-HPLC; read-out: HIV Protease % Inhibition at 10 μM. As to the method: An HIV protease standard assay was performed in a 60 μl reaction medium containing 50 mM sodium acetate, pH 5.5, 100 μg/ml bovine serum albumen,450 μM substrate (H2 N-Val-Ser-Gln-Asn-(β-naphthyl-alanine)-Pro-Val-Ile-OH), and purified protease. The reaction medium was incubated for 30 minutes at 37° C., quenched by the addition of 140 μl 5% H3 PO4, then analyzed by reverse phase HPLC using UV220 detection. In a typical control assay, 7% of the substrate was hydrolyzed. Aminediol inhibitors of the present invention, listed in the following Table 1, were then employed in the assay, for which purpose they were prepared as a […] solution in DMSO, then diluted to 30 μM with 50 mM sodium acetate/bovine serum albumen. This working stock was then diluted three-fold into the protease reaction medium, for a final concentration of 10 μM inhibitor and 4% DMSO.
In general, inhibition refers to the relative decrease from the control value, in per cent. As for `CC(C)(C)OC(=O)N[C@@H](Cc1ccccc1)[C@H](O)CNC[C@@H](O)[C@H](Cc1ccccc1)NC(=O)COc1cccc2ccccc12` [Compound 63, [1S-[1R*,2S*(2S*,3R*)]]-[2-Hydroxy-3-[[2-hydroxy-3-[[(1-naphthalenyloxy)-acetyl]amino]-4-phenylbutyl]amino]-1-(phenyl-methyl)propyl]carbamic acid, 1,1-dimethylethyl ester], the inhibition at 10 µM came out at 53%.
For the compound `CC(C)(C)OC(=O)N[C@@H](Cc1ccccc1)[C@H](O)CNC[C@@H](O)[C@H](Cc1ccccc1)NC(=O)c1ccc2ccccc2n1` [Compound 65, [1S-[1R*,2S*(2S*,3R*)]]-[2-Hydroxy-3-[[2-hydroxy-4-phenyl-3-[(2-quinolinylcarbonyl)-amino]butyl]amino]-1-(phenylmethyl)propyl]carbamic acid, 1,1-dimethylethyl ester], the inhibition at 10 µM stood at 11%.
Regarding `CN(Cc1ccccc1)C(=O)N[C@@H](Cc1ccccc1)[C@H](O)CNC[C@@H](O)[C@H](Cc1ccccc1)NC(=O)OC(C)(C)C` [Compound 69, [1S-[1R*,2S*(2S*,3R*)]]-2-Hydrox3-[[2-hydroxy-3-[[[methyl(phenylmethyl)-amino]carbonyl]amino]-4-phenylbutyl]amino]-1-(phenylmethyl)propyl]carbamic acid, 1,1-dimethylethyl ester], the inhibition at 10 µM is 11%.
With `O=C(Cc1ccccc1)N[C@@H](Cc1ccccc1)[C@H](O)CNC[C@@H](O)[C@H](Cc1ccccc1)NC(=O)Cc1ccccc1` [Compound 83, [R-(R*,S*)]-N,N'-[Iminobis[2-hydroxy-1-(phenylmethyl)-3,1-propanediyl[bisbenzeneacetamide], the inhibition at 10 µM is 19%.
Take `CC(C)(C)OC(=O)N[C@@H](Cc1ccccc1)[C@H](O)CNC[C@@H](O)[C@H](Cc1ccccc1)NC(=O)[C@H](CCCCN)NC(=O)OCc1ccccc1` [Compound 89, [S-[1R*,2S*(2S*,3R*)[[-N-[3-[[3-[[(1,1-Dimethylethoxy)carbonyl]amino]-2-hydroxy-4-phenylbutyl]amino]-2-hydroxy-1-(phenylmethyl)-propyl]-N2-[(phenylmethoxy)carbonyl]-L-lysinamide]: the inhibition at 10 µM amounted to 23%.
The figure for `CC(C)(C)OC(=O)N[C@@H](Cc1ccccc1)[C@H](O)CNC[C@@H](O)[C@H](Cc1ccccc1)NC(=O)[C@@H](NC(=O)OCc1ccccc1)c1ccccc1` [Compound 94, [1S-[1R* [1R*,2S* (2S*,3R*)]]]-[2-[[3-[[3-[[(1,1-Dimethylethoxy)carbonyl]amino]-2-hydroxy-4-phenylbutyl]amino]-2-hydroxy-1-(phenylmethyl)propyl]amino]-2-oxo-1-phenylethyl]carbamic acid, phenylmethyl ester] is 80 to 99%.
As for `CC(C)(C)OC(=O)N[C@@H](Cc1ccccc1)[C@H](O)CNC[C@@H](O)[C@H](Cc1ccccc1)NC(=O)[C@@H]1CCCN1C(=O)OCc1ccccc1` [Compound 102, [S-[1R*,2S*(2S*,3R*)[]-N-[[[3-[[3-[[(1,1-Dimethylethoxy)carbonyl]amino]-2-hydroxy-4-phenylbutyl]amino]-2-hydroxy-1-(phenylmethyl)-propyl]-N^2-[phenylmethoxy)carbonyl]-L-prolinamide], the inhibition at 10 µM is 47%.
As to `CC(C)(C)OC(=O)N[C@@H](Cc1ccccc1)[C@H](O)CNC[C@@H](O)[C@H](Cc1ccccc1)NC(=O)C(OCc1ccccc1)C(C)(C)C` (stereo partly drawn) [Compound 106, [1S-[1R*,2S* (2S*,3R*)]]-3-[[3-[[3,3-Dimethyl-1-oxo-2-(phenylmethoxy)butyl)butyl]amino]-2-hydroxy-4-phenylbutyl]amino]-2-hydroxy-1-(phenyl-methyl)propyl]carbamic acid, 1,1-dimethylethyl ester], the inhibition at 10 µM was determined as 71%.
